What was measured:
[1] = molecular target: Receptor-type tyrosine-protein kinase FLT3 (Homo sapiens) (UniProt P36888); experiment: Inhibition of human FLT3 assessed as remaining enzyme activity at 1 uM
[2] = molecular target: T1, Ephrin type-A receptor 8 (Homo sapiens) (UniProt P29322); experiment: Inhibition of human EphA8 assessed as remaining enzyme activity at 0.1 uM
T1 sequence (whole entry): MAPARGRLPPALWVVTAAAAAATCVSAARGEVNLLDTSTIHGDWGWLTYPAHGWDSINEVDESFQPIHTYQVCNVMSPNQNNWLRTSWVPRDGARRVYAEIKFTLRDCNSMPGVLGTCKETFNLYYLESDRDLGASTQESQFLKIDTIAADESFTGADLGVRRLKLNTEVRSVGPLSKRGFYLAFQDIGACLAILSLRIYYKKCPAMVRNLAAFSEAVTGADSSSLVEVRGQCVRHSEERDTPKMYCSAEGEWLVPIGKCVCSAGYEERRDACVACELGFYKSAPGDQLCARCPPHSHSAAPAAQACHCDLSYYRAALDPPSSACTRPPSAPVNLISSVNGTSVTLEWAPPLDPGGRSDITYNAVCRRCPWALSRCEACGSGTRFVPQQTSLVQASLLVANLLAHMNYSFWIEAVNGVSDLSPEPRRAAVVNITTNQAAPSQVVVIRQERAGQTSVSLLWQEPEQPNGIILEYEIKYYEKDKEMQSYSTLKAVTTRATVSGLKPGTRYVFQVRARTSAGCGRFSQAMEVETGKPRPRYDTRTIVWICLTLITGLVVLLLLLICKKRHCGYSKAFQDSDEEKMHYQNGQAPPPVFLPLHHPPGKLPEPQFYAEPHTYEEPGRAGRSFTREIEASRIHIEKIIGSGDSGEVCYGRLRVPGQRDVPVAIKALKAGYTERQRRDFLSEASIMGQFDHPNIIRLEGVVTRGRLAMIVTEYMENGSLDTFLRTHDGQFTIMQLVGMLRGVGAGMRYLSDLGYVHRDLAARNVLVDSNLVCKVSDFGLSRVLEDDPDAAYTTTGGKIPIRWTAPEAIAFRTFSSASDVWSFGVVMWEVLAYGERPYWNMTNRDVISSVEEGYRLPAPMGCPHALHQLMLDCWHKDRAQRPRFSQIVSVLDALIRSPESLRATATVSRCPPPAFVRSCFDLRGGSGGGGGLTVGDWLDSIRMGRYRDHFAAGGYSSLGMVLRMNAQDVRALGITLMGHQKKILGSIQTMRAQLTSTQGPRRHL

[3] = molecular target: BDNF/NT-3 growth factors receptor (Homo sapiens) (UniProt Q16620); experiment: Inhibition of human TRKB assessed as remaining enzyme activity at 0.1 uM
[4] = molecular target: Homeodomain-interacting protein kinase 2 (Homo sapiens) (UniProt Q9H2X6); experiment: Inhibition of human HIPK2 assessed as remaining enzyme activity at 0.1 uM
[5] = molecular target: Serine/threonine-protein kinase B-raf (Homo sapiens) (UniProt P15056); experiment: Inhibition of human B-Raf assessed as remaining enzyme activity at 0.01 uM
[6] = molecular target: Platelet-derived growth factor receptor beta (Homo sapiens) (UniProt P09619); experiment: Inhibition of human PDGFRbeta assessed as remaining enzyme activity at 1 uM
[7] = molecular target: Vascular endothelial growth factor receptor 1 (Homo sapiens) (UniProt P17948); experiment: Inhibition of human VEGFR1 assessed as remaining enzyme activity at 0.1 uM
[8] = molecular target: Tyrosine-protein kinase ABL2 (Mus musculus) (UniProt Q4JIM5); experiment: Inhibition of mouse ARG assessed as remaining enzyme activity at 0.01 uM
[9] = molecular target: Epithelial discoidin domain-containing receptor 1 (Homo sapiens) (UniProt Q08345); experiment: Inhibition of human DDR1 assessed as remaining enzyme activity at 0.01 uM
[10] = molecular target: Vascular endothelial growth factor receptor 1 (Homo sapiens) (UniProt P17948); experiment: Inhibition of human VEGFR1 assessed as remaining enzyme activity at 1 uM
[11] = molecular target: T1, Ephrin type-A receptor 8 (Homo sapiens); experiment: Inhibition of human EphA8 assessed as remaining enzyme activity at 1 uM
[12] = molecular target: Tyrosine-protein kinase ABL2 (Mus musculus) (UniProt Q4JIM5); experiment: Inhibition of mouse ARG assessed as remaining enzyme activity at 0.1 uM
[13] = molecular target: Serine/threonine-protein kinase TAO1 (Homo sapiens) (UniProt Q7L7X3); experiment: Inhibition of human TAO1 assessed as remaining enzyme activity at 1 uM
[14] = molecular target: Vascular endothelial growth factor receptor 2 (Homo sapiens) (UniProt P35968); experiment: Inhibition of human VEGFR2 assessed as remaining enzyme activity at 0.01 uM
[15] = molecular target: RAF proto-oncogene serine/threonine-protein kinase (Homo sapiens) (UniProt P04049); experiment: Inhibition of human RAF1 assessed as remaining enzyme activity at 1 uM
[16] = molecular target: RAF proto-oncogene serine/threonine-protein kinase (Homo sapiens) (UniProt P04049); experiment: Inhibition of human C-Raf assessed as remaining enzyme activity at 0.01 uM
[17] = molecular target: T2, Muscle, skeletal receptor tyrosine-protein kinase (Homo sapiens) (UniProt O15146); experiment: Inhibition of human MuSK assessed as remaining enzyme activity at 0.01 uM
T2 sequence (whole entry): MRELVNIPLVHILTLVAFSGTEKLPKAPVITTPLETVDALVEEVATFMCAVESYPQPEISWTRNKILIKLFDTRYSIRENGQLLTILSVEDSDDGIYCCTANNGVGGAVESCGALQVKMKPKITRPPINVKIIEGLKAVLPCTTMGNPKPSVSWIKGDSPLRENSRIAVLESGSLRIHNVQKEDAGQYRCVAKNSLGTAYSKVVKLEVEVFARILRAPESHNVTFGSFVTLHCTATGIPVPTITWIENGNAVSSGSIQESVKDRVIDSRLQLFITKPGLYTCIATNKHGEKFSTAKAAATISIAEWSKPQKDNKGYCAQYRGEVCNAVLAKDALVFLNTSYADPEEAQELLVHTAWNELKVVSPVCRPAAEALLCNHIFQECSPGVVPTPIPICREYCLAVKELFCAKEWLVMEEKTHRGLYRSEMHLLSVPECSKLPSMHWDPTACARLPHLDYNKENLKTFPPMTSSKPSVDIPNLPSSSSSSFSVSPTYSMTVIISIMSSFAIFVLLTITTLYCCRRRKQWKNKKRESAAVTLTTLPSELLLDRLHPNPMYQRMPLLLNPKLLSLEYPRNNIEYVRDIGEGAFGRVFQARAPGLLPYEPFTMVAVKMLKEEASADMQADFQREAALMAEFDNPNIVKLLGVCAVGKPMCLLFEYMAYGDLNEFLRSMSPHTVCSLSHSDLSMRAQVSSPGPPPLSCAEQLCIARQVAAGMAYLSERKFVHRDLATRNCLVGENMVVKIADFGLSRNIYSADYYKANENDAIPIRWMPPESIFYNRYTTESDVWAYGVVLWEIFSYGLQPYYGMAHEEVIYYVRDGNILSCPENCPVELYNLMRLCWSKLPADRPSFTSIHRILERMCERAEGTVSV

[18] = molecular target: Mitogen-activated protein kinase 14 (Homo sapiens) (UniProt Q16539); experiment: Inhibition of human p38alpha assessed as remaining enzyme activity at 0.01 uM
[19] = molecular target: Homeodomain-interacting protein kinase 3 (Homo sapiens) (UniProt Q9H422); experiment: Inhibition of human HIPK3 assessed as remaining enzyme activity at 0.1 uM

Vascular endothelial growth factor receptor 1 (Homo sapiens), sequence (P17948 whole entry): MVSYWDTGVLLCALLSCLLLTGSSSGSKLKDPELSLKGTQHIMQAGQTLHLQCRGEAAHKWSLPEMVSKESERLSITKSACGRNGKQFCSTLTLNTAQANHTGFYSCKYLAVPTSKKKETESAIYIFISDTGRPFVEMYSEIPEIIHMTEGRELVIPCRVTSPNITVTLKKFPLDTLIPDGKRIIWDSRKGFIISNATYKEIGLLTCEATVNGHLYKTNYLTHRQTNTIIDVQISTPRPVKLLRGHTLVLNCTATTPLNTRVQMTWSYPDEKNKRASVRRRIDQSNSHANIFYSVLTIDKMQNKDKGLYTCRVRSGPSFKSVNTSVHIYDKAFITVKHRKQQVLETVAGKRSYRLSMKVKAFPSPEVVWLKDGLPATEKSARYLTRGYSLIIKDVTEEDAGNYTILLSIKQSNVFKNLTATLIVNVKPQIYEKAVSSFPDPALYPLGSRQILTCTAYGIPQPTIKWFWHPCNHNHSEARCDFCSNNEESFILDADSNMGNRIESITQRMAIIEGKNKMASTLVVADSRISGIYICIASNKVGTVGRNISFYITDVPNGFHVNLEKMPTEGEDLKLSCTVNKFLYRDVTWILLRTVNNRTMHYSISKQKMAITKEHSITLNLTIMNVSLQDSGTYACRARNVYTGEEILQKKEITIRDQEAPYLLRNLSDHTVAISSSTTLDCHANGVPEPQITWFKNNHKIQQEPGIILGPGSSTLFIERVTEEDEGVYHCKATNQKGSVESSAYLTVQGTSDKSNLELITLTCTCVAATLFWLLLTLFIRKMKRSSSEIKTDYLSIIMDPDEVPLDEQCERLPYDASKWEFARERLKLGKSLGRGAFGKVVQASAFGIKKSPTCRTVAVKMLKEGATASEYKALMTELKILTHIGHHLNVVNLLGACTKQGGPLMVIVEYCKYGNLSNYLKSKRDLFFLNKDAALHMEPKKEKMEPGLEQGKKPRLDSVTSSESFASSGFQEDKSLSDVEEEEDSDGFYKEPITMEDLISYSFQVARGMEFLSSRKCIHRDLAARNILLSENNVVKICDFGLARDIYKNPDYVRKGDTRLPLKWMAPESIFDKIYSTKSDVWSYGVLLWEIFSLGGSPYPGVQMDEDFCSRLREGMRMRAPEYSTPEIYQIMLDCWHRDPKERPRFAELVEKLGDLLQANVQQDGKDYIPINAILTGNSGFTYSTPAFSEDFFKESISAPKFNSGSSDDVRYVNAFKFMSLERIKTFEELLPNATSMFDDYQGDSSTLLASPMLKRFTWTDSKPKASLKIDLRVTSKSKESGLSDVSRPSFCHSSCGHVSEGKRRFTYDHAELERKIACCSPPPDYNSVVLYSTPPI
RAF proto-oncogene serine/threonine-protein kinase (Homo sapiens), sequence (P04049 whole entry): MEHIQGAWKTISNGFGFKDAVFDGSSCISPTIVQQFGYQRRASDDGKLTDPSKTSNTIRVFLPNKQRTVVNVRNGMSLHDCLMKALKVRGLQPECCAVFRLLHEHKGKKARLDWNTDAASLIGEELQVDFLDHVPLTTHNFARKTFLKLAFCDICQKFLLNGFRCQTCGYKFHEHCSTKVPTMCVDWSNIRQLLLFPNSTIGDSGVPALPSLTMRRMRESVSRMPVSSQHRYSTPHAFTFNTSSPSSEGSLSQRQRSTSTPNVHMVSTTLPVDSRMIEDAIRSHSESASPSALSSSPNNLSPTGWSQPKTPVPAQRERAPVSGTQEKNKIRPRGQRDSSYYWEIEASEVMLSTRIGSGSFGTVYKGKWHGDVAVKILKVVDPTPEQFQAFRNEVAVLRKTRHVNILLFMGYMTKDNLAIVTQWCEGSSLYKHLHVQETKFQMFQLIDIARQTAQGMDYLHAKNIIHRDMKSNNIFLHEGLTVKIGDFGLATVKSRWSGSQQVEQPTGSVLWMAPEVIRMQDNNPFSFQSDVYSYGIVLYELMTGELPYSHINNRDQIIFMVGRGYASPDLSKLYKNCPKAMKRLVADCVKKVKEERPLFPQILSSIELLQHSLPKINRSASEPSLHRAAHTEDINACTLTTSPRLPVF
Tyrosine-protein kinase ABL2 (Mus musculus), sequence (Q4JIM5 whole entry, the tested form may be a part): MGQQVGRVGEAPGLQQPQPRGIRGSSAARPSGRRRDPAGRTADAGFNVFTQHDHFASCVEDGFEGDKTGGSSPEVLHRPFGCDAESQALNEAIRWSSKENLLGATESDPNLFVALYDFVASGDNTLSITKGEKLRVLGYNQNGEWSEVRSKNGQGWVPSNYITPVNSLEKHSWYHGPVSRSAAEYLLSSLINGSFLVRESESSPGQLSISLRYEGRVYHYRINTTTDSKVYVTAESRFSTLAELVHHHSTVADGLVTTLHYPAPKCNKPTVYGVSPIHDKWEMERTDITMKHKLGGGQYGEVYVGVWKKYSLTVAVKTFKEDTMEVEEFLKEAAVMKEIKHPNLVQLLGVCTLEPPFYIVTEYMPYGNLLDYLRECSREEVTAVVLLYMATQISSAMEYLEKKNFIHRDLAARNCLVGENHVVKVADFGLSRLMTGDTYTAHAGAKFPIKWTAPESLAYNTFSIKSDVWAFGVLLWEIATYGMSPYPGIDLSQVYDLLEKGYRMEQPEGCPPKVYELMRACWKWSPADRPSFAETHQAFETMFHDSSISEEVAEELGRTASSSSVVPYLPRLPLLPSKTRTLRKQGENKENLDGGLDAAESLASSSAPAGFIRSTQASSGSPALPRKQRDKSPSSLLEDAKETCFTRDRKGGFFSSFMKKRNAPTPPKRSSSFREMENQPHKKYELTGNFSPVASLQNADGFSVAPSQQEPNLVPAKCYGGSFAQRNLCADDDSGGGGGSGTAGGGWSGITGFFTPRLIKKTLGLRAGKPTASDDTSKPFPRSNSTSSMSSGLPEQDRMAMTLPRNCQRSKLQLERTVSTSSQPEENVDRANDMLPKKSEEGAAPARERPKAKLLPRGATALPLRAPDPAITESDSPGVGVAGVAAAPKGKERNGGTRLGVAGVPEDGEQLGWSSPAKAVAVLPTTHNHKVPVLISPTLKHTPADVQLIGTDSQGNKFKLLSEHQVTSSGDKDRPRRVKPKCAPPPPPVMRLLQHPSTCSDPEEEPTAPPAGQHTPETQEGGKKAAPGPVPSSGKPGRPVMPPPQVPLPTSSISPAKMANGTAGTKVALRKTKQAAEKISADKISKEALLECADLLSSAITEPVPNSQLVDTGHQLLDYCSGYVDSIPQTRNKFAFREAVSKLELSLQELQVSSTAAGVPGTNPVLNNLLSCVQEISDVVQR
Homeodomain-interacting protein kinase 2 (Homo sapiens), sequence (Q9H2X6 whole entry, looked up): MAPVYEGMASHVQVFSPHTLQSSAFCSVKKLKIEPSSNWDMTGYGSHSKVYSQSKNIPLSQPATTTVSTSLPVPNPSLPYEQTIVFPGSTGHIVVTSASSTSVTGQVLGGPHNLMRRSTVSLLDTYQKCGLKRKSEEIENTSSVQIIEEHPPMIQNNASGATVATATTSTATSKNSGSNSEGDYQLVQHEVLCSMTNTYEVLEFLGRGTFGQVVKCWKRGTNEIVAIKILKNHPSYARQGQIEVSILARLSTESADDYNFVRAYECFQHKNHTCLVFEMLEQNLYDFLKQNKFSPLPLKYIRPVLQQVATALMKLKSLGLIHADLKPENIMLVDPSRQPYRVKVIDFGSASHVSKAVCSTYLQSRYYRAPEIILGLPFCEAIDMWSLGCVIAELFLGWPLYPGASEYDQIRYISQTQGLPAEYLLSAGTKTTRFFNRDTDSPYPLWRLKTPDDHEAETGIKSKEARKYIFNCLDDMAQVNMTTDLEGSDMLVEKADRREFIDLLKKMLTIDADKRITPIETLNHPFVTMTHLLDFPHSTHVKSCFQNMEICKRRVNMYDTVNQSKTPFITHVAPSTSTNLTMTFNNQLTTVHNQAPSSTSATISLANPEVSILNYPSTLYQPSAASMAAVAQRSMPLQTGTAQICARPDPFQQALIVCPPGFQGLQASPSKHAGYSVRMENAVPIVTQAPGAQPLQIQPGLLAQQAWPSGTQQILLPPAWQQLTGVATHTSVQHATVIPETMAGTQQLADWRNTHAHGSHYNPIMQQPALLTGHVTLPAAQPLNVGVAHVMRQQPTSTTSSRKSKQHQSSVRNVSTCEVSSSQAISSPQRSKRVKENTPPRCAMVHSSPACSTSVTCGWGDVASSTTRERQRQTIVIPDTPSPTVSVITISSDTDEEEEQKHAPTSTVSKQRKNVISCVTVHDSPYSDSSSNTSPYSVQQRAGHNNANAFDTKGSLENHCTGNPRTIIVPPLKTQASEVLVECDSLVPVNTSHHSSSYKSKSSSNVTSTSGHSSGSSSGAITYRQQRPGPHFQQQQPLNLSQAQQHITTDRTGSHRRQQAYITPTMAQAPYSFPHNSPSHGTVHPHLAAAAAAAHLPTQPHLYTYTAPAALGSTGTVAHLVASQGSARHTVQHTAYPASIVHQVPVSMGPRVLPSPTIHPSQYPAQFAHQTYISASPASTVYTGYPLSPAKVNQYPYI
Mitogen-activated protein kinase 14 (Homo sapiens), sequence (Q16539 whole entry): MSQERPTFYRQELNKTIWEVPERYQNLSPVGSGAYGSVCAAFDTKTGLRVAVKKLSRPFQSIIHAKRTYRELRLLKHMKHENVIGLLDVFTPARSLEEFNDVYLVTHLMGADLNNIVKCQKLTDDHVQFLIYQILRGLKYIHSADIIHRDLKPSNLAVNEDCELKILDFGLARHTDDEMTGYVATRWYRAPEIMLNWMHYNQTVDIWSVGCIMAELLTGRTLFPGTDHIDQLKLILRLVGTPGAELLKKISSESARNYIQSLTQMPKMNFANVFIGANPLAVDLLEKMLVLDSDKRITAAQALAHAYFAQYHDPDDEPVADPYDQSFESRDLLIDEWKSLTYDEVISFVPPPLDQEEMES

- Activity [1]: 31%
- Activity [2]: 44%
- Activity [3]: 53%
- Activity [4]: 61%
- Activity [5]: 101%
- Activity [6]: 55%
- Activity [7]: 3%
- Activity [8]: 97%
- Activity [9]: 92%
- Activity [10]: 3%
- Activity [11]: 5%
- Activity [12]: 29%
- Activity [13]: 42%
- Activity [14]: 68%
- Activity [15]: 8%
- Activity [16]: 93%
- Activity [17]: 89%
- Activity [18]: 100%
- Activity [19]: 68%
Compound: CNC(=O)c1cc(Oc2ccc(NC(=O)Nc3ccc(Cl)c(C(F)(F)F)c3)c(F)c2)ccn1
